{"source": "patent US20260097083A1", "about": "“METHOD FOR PRODUCING PANCREATIC ENDODERM CELLS” (Kyoto University, priority 2022, published 2026)", "key": {"[1]": {"system": "pancreatic endoderm cells", "experiment": "α-SMA immunostaining at the third passage of expansion culture", "assay_type": "cell-based", "details": "Y-27632 50 μM vs non-administration, FIG. 6", "procedure": "FIG. 6 Images of pancreatic endoderm cells immunostained against α-SMA at the third passage of the pancreatic endoderm cells with or without the administration of Y-27632 (50 μM). The cells after the expansion culture were washed with PBS(−) twice, and were then fixed using 4% PFA at 4° C. for 20 minutes. The cells were blocked with a blocking solution (PBS(−) containing 5% donkey serum and 0.4% Triton X-100) at room temperature for 30 minutes. The cells were incubated in a primary antibody solution diluted with the blocking solution at 4° C. overnight. After the primary antibody solution was washed off, the cells were incubated at room temperature for 1 hour in a fluorescent secondary antibody solution diluted with the blocking solution. Fluorescently immunostained images were acquired using BZ-710 or BZ-800 (Keyence). A mechanism by which the expansion culture of pancreatic endoderm cells with Y-27632 was enabled was examined. It was shown that, at the third passage of the expansion culture, the number of α-SMA-positive cells increased in the Y-27632 non-administration group compared with the group to which Y-27632 at a concentration of 50 μM was administered (FIG. 6). That is to say, it was observed that fibrosis or epithelial-mesenchymal transition was suppressed by administering Y-27632 to the cells."}, "[2]": {"system": "PDX1+/NKX6.1+ pancreatic endoderm cells", "experiment": "Expansion culture with Y-27632 at different concentrations", "assay_type": "cell-based", "details": "40 days, FIG. 5-A", "procedure": "FIG. 5-A Changes in the number of PDX1^+/NKX6.1^+ pancreatic endoderm cells and the total number of cells during expansion culture with Y-27632 (0, 10, or 50 μM). (1) After the cells produced in clause 1 above were washed with PBS(−), 1 ml of 0.25% trypsin-EDTA was added thereto, and the cells were incubated at 37° C. and 5% CO2 for 5 minutes. (2) The adherent cells were detached through pipetting and were added to a 50-ml centrifuge tube. (3) 4 ml of DMEM (Dulbecco's Modified Eagle Medium)/10% FBS/PS (penicillin-streptomycin) was added to the centrifuge tube. (4) The resulting mixture was centrifuged at 400 G for 3 minutes, and the supernatant was removed. (5) The cells were suspended in improved MEM (containing 10 μM Y-27632, 0.5×B-27 Supplement, and 100 U/ml penicillin/streptomycin), and were counted. (6) When the cells were seeded on a 6-well plate, an amount of the suspension necessary to provide 1×10^6 cells/well was collected and was centrifuged at 400 G for 3 minutes (2×10^5 cells/well for a 24-well plate). (7) After the supernatant was removed, the cells were re-suspended in improved MEM (containing 100 ng/ml KGF, 50 ng/ml EGF, 10 mM nicotinamide, 50 μM Y-27632, 0.5×B-27 Supplement, and 100 U/ml penicillin/streptomycin), the suspension was adjusted to correspond to 2 ml/well, and then the cells were seeded. A 6-well plate to which the cells were to be seeded had been coated in advance by adding a solution formed by mixing 10 μl of iMatrix-511 silk and 1.5 ml of PBS(−) to each well 1 hour before seeding, and incubating the plate at 37° C. and 5% CO2 for 1 hour. (8) On the next day (Day 1), the cells were washed with improved MEM, and then the culture medium was changed to improved MEM (5 ml/well) containing 100 ng/ml KGF, 50 ng/ml EGF, 10 mM nicotinamide, 50 μM Y-27632, 0.5×B-27 Supplement, and 100 U/ml penicillin/streptomycin. (9) The cells were washed with improved MEM 3 days after that (on Day 4), and then the culture medium was changed to the same culture medium as that in the step (7) (5 ml/well). (10) The steps (1) to (7) above were conducted 3 days after that (on Day 7), and the next passage (expansion culture) was conducted. Expansion culture and passage culture were repeated by repeating the steps (8), (9), and (10) from the next day. One round of the passage (expansion culture) corresponded to 7 days (operations above). FIGS. 4-A show the outline of this procedure. […]"}}}
{"compound": "C[C@@H](N)[C@H]1CC[C@H](C(=O)Nc2ccncc2)CC1", "note": "[Y-27632]", "values": [{"measurement": "fibrosis or epithelial-mesenchymal transition (α-SMA-positive cells)", "setting": "[1]", "result": "suppressed"}, {"measurement": "number of PDX1+/NKX6.1+ pancreatic endoderm cells increased by a factor of", "setting": "[2]; Y-27632 10 μM", "result": "about 1×10^4"}, {"measurement": "total number of cells increased by a factor of", "setting": "[2]; Y-27632 10 μM", "result": "about 1×10^4"}, {"measurement": "number of PDX1+/NKX6.1+ pancreatic endoderm cells increased by a factor of", "setting": "[2]; Y-27632 50 μM", "result": "about 1×10^4"}, {"measurement": "total number of cells increased by a factor of", "setting": "[2]; Y-27632 50 μM", "result": "about 1×10^4"}]}
